Measurements reported in publication PMC12067278, “A responsive living material prepared by diffusion reveals extracellular enzyme activity of cyanobacteria” (Proceedings of the National Academy of Sciences of the …, 2025).

Target: T1, AmiX (Synpcc7942_1548 gene product, putative amidase) (Synechococcus elongatus, UniProt Q31MZ1)
T1 construct: expressed in E. coli BL21, clarified lysate assayed; ORF PCR product ~1,320 bp
T1 sequence (Q31MZ1 1-439 limits assumed): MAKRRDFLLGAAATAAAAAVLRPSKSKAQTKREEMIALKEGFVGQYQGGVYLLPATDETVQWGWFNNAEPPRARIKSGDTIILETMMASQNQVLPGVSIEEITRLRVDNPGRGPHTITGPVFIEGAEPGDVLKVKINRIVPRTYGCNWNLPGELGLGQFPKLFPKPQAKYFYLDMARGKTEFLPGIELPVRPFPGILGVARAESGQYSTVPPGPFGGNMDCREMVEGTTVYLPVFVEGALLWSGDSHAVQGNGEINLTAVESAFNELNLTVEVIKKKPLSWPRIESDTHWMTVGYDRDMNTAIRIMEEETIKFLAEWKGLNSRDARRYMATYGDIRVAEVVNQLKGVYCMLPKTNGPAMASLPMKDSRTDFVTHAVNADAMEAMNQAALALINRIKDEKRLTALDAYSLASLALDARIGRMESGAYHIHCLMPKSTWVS
Test: NBD-Cl amine-detection fluorescence assay ([…] nm), E. coli lysate
Type: biochemical
Settings: 50 mM potassium phosphate pH 7.5, 2.5 mM NIPAm (50 uL of 50 mM in 1 mL), 20 h, high lysate background

C=CC(=O)NC(C)C [NIPAm, N-isopropylacrylamide]
NBD-Cl amine-detection fluorescence assay (485/538 nm), E. coli lysate: the lysate containing both the S. elongatus amidase and NIPAm produced significantly more fluorescence
